System: HIF-1
Assay: Inhibition of HIF-1 mediated HRE transcription activity (pGL3-HRE-luciferase reporter)
Assay type: cell-based, human
Conditions: HCT116, hypoxic condition 12 hours
Method: To investigate the inhibition of HIF-1 transcription activity by the compound of the present invention, pGL3-basic vector (Promega) using luciferase as a reporter was cloned in multi-cloning site so as for HRE (Hypoxia Responsive Element, 5′-ACGTG-3′) existing in human VEGF gene to be repeated 6 times, resulting in the construction of pGL3-HRE-luciferase vector.
The human rectal cancer cell line HCT116 was seeded in a 48-well cell culture vessel. On the next day, the cells were transfected with 25 ng of pGL3-HRE-luciferase vector and 2.5 ng of Renilla control vector by using Polyfect reagent. After culturing the cells for 24 hours, the medium was replaced, followed by further culture for 4 hours. Then, the cells were treated with the compound prepared in each example at the concentration of 10 μM respectively, followed by culture in hypoxic condition (oxygen 1%, nitrogen 94%, carbon dioxide 5%) for 12 hours. Lysate was obtained by using RIPA buffer, by which hypoxia-induced luciferase activity was measured by using dual-luciferase assay system (Promega). Hypoxia-induced luciferase activity after the treatment of the compound prepared in example 1 or the compound prepared in comparative example 1 was measured by the same manner as described above except that the compound was treated at the concentrations of 0, 1, 3, 5, 10, and 20 μM. HIF-1 inhibition activity of each compound prepared in example 1 and comparative example 1 respectively was compared and the results are shown in Table 2 and FIG. 2.

In the case of `COC(=O)c1ccc(O)c(NC(=O)COc2ccc(C34CC5CC(CC(C5)C3)C4)cc2)c1` [Comparative Example 1, 3-[2-(4-adamantan-1-yl-phenoxy)-acetylamino]-4-hydroxy-benzoic acid methyl ester, reference compound], the “HRE transcription activity (%)” value (1 μM) is reported as 119.4%, the “HRE transcription activity (%)” value (3 μM) is reported as 121.5% and the “HRE transcription activity (%)” value (5 μM) is reported as 98.8%. The “HRE transcription activity (%)” value (10 μM) was 75.6% and the “HRE transcription activity (%)” value (20 μM) was 43.1%.

Source: patent publication US8940936B2, “Aryloxy phenoxy acrylic compound having HIF-1 inhibition activity, method for preparing same, and pharmaceutical composition containing same as an active ingredient” (Korea Research Institute of Bioscience and Biotechnology, priority 2010, dated 2015)
